Results: patent US6689807B1, “HMG CoA reductase inhibitors for promoting angiogenesis” (priority 2000, dated 2004)

What was measured:
Akt = Akt serine 473 phosphorylation, western immunoblot in HUVEC; assay type: cell-based, human
[1] = tested on: bovine aortic endothelial cells; assay: NO release from endothelial cells (chemiluminescence); assay type: cell-based; conditions: BAEC
Description: Nitric oxide release was measured in the cell supernatant by chemiluminescent detection of […] (NO2^−), the stable breakdown product of NO. […] In some samples, wortmannin was added 1 hour prior to stimulation. Cell supernatants were collected, deproteinized, and refluxed in glacial acetic acid containing sodium iodide. Processed specimens were measured with a NO analyzer (Sievers).

HUVEC = assay: Apoptosis assays in serum-free HUVEC (Annexin-V/propidium iodide, Hoechst 33342 pyknotic nuclei); assay type: cell-based, human; conditions: serum-free media
Description: HUVEC cultures were plated on chamber slides at a density of 4×10^4 cells/well. […] Parallel cultures were infected with an adenoviral construct expressing dominant-negative Akt (dnAKT) 24 hours prior to the change to serum-free media.
Data are shown as the mean ±S.E.M. (n=4-6, *p<0.05).
Fluorescence-labeled Annexin-V-FLUOS staining of HUVEC was performed according to manufacturer's instructions (Roche Molecular Biochemicals). Briefly, cells were plated on to chamber slides (Nunc) and placed in EBM for 3 hours. […] For detection of pyknotic nuclei, cells were stained with Hoechst 33342. […] Infection with adenovirus encoding dominant-negative Aktl was initiated 24 hours prior to incubation in EBM media.

VEGF = conditions: cultured primary endothelial cells; cited from earlier work
[2] = tested on: tumor-induced blood-vessel formation; conditions: mouse model of tumor-cell induced angiogenesis; cited from earlier work
ischemic hindlimb = assay: Limb revascularization studies after unilateral femoral artery resection; assay type: in vivo; conditions: rabbit, simvastatin 0.1 mg/kg daily i.p., 40 days
Description: Male New Zealand white rabbits weighing 3.0 to 3.5 kg were utilized to examine the effects of Akt-signaling and simvastatin-mediated stimulation of vessel growth. For the infusion model, the left femoral artery and major side branches were excised from their proximal origin to within 2 cm of the bifurcation into the saphenous and popliteal arteries. After 10 days, to permit postoperative recovery, the distal femoral artery was re-exposed and, after temporary clamping inflow veins, 50 ml of saline, saline with 3.5×10^10 viral particles of Ad-βgal, or saline with 3.5×10^10 viral particles of Ad-myrAkt was infused via the distal femoral artery and incubated for 15 minutes. […] The remainder of the animals (n=6 per experimental group) were analyzed for limb revascularization at 31 days after femoral artery resection. […] Animals in these groups (n=6 each) were analyzed for limb revascularization 40 days after surgery. Calf blood pressure was measured in both limbs by Doppler flow meter (model 1059, Parks Medical Electronics, Aloha, Oreg.). […] Collateral arteries were evaluated by internal iliac angiography. […] Nonionic contrast media (Isovue-370, Squibb Diagnostics, New Brunswick, N.J.) was injected at a rate of 1 ml/sec and serial images of the ischemic hindlimb were recorded at a rate of 1 film/sec for 10 seconds. […] Angiographic luminal diameter (d) was determined from the angiograms. […]

eNOS = assay: Phosphorylation of endogenous eNOS in vivo (32P-orthophosphate labelled HUVEC); assay type: cell-based, human; conditions: simvastatin 1 μM or VEGF 100 ng/ml, 30 min
Description: Alternatively, HUVEC were infected with adenovirus expressing constitutively-active Akt (myrAkt) 24 hours prior to radiolabeling and assayed for endogenous eNOS phosphorylation in the absence of Akt agonist. […] Endogenous eNOS protein was immunoprecipitated, separated by SDS-PAGE, and its phosphorylation was visualized by autoradiography. c, COS-7 cells co-transfected with eNOS (wt: wildtype eNOS, S1179A: serine 1179 mutant) and Akt (HA-Akt) expression plasmids. […] Immunoprecipitates of wild-type or mutant eNOS were examined for ^32P-phosphate incorporation by autoradiography following SDS-PAGE.
The lysate was subjected to immunoprecipitation using mouse monoclonal anti-eNOS antibody (Transduction Laboratories). Radiolabeled phosphate incorporation into each protein was visualized after SDS-PAGE (7.5%) by autoradiography.

Q: With `COC[C@H]1OC(=O)c2coc3c2[C@@]1(C)C1=C(C3=O)[C@@H]2CCC(=O)[C@@]2(C)C[C@H]1OC(C)=O` [wortmannin] as the compound, how does the “total Akt or eNOS protein levels” value (Akt; HUVEC) read?
A: no effect

Q: And the “simvastatin-stimulated NO release with wortmannin treatment” value ([1]; wortmannin added 1 hour prior to simvastatin)?
A: 0.26±0.05 nmol NO2^−/ml

Q: What about the “basal NO synthesis with wortmannin treatment” value ([1]; wortmannin, no simvastatin) of the same compound?
A: 0.29±0.07 nmol NO2^−/ml

Q: What does the source list for `CC(O)(CCO)CC(=O)O` [mevalonate, L-mevalonate]?
A: total Akt or eNOS protein levels (Akt; HUVEC): no effect; effect on simvastatin-induced Akt phosphorylation (Akt; HUVEC pretreated 1 hour (mevalonate 200 μM, wortmannin 500 nM, LY294002 10 μM), then 1 μM simvastatin 30 minutes): blocked; effect on VEGF-induced Akt phosphorylation (Akt; HUVEC, mevalonate 200 μM, 100 ng/ml VEGF): no effect; effect on VEGF-induced endothelial cell survival (HUVEC): no effect; effect on statin-induced endothelial cell survival (HUVEC): blocked; effect on survival in the absence of statin or VEGF stimulation (HUVEC): no detectable effect

Q: Which “induction of VEGF expression” value (VEGF) does the source give for `CC[C@H](C)C(=O)O[C@H]1CCC=C2C=C[C@H](C)[C@H](CC[C@@H]3C[C@@H](O)CC(=O)O3)[C@H]21` [mevastatin] here?
A: completely blocked

Q: Which tumor-induced blood-vessel formation [2] does the source give for TNF-α here?
A: no angiostatic effects

Q: Which results are given for `CCC(C)(C)C(=O)O[C@H]1C[C@@H](C)C=C2C=C[C@H](C)[C@H](CC[C@@H]3C[C@@H](O)CC(=O)O3)[C@H]21` [simvastatin]?
A: simvastatin concentration at which maximal Akt phosphorylation occurs (Akt; HUVEC, serine 473, within 30 minutes): 1.0 µM; NO release ([1]; simvastatin 1 hour): 0.48±0.07 nmol NO2^−/ml; capillary density in adductor muscle (ischemic hindlimb): 253±23 capillaries/mm^2; Doppler flow (ischemic hindlimb; maximal flow after papaverine): 46.6 ± 3.0 mL/min

Q: Which tumor-induced blood-vessel formation [2] does the source give for `CC[C@H](C)C(=O)O[C@H]1C[C@@H](C)C=C2C=C[C@H](C)[C@H](CC[C@@H]3C[C@@H](O)CC(=O)O3)[C@H]21` [lovastatin] here?
A: no angiostatic effects

Q: For VEGF, which “Akt serine 473 phosphorylation” value (Akt; HUVEC, simvastatin within 30 minutes, VEGF 100 ng/ml) is on record?
A: robust activation

Q: And the “phosphate incorporation in endogenous eNOS” value (eNOS)?
A: increase

Q: With `O=c1cc(N2CCOCC2)oc2c(-c3ccccc3)cccc12` [LY294002] as the compound, how does the “total Akt or eNOS protein levels” value (Akt; HUVEC) read?
A: no effect
